# Reference: patent US11083724B2, “Rimegepant for CGRP related disorders” (Biohaven Pharmaceutical Holding Company Ltd., priority 2018, dated 2021)
# Test system: subjects with Acute Migraines
# Test: Pooled liver function test profile, Study 301 and Study 302
# Format: in vivo, human
# Procedure: (§1) In a double-blind, randomized, placebo-controlled, multicenter study (Study 301, NCT03235479) adults≥18 years of age with at least a 1-year history of ICHD 3-beta migraine were eligible to participate. Following a 3- to 28-day screening period, subjects were randomized to receive rimegepant 75 mg or matching placebo and instructed to treat a single migraine attack with 1 dose of the blinded study drug (rimegepant or placebo) when headache pain reached moderate or severe intensity. The coprimary endpoints were pain freedom at 2 hours postdose and freedom from the most bothersome symptom (MBS) at 2 hours postdose. Safety assessments included adverse events (AEs), ECGs, vital signs, physical measurements, and routine laboratory tests, including assessment of liver function. Unless stated otherwise, values presented are mean±SD.
# as §1, with “302, NCT03237845)” for “301, NCT03235479)”
# [1] = pooled Study 301 and 302, n = 1089
structure (smiles),measurement,setting,value
"N[C@@H]1c2cccnc2[C@H](OC(=O)N2CCC(n3c(=O)[nH]c4ncccc43)CC2)CC[C@H]1c1cccc(F)c1F [Rimegepant, [(5S,6S,9R)-5-amino-6-(2,3-difluorophenyl)-6,7,8,9-tetrahydro-5H-cyclohepta[b]pyridin-9-yl] 4-(2-oxo-3H-imidazo[4,5-b]pyridin-1-yl)piperidine-1-carboxylate]",Pooled Liver Function Test profile versus placebo,Study 301 and Study 302,Rimegepant was Similar to Placebo in Both Studies
same,bilirubin elevations > 2 × ULN,across both Studies 301 and 302,*No bilirubin elevations > 2 × ULN across both Studies 301 and 302
same,"ALT >3 × ULN, number of subjects",[1],1
same,"ALT >3 × ULN, percent of subjects",[1],0.1%
same,"ALT >5 × ULN, number of subjects",[1],0
same,"ALT >10 × ULN, number of subjects",[1],0
same,"ALT >20 × ULN, number of subjects",[1],0
same,"ALT >ULN, number of subjects",[1],22
same,"ALT >ULN, percent of subjects",[1],2.0%
same,"AST >3 × ULN, number of subjects",[1],1
same,"AST >3 × ULN, percent of subjects",[1],0.1%
same,"AST >5 × ULN, number of subjects",[1],0
same,"AST >10 × ULN, number of subjects",[1],0
same,"AST >20 × ULN, number of subjects",[1],0
same,"AST >ULN, number of subjects",[1],12
same,"AST >ULN, percent of subjects",[1],1.1%
